The term IC50 denotes the midpoint of a concentration-inhibition curve. As a reminder, the inhibition is the drop in the measured response relative to a control, in per cent.

Consider three molecules from PMC8550792, “Evolution of kinase polypharmacology across HSP90 drug discovery” (Cell Chemical Biology, 2021).

Where “and” joins values, the source holds several entries; their conditions need not be identical. Equal values may be shown once. Read-outs that look alike come from different tables or passages of the source.

Experiment [1] addresses T1, 382 unique human kinases (Homo sapiens, UniProt P11802).
T1 construct: purchased Reaction Biology (HotSpot contract assay)
Nature of the experiment: biochemical. Type of experiment: biochemical. The conditions noted are these: for remaining activity at 10 µM: read-out: % Enzyme Activity (relative to DMSO controls).

For experiment [2], the target named is T2, 382 unique human kinases (Homo sapiens, UniProt P24941).
T2 construct: purchased Reaction Biology (HotSpot contract assay)
The experiment can be described thus: biochemical. Format: biochemical. Particulars: for remaining activity at 10 µM: read-out: % Enzyme Activity (relative to DMSO controls).

The target of experiment [3] is T3, 382 unique human kinases (Homo sapiens, UniProt P50750).
T3 construct: purchased Reaction Biology (HotSpot contract assay)
T3 sequence (P50750 whole entry): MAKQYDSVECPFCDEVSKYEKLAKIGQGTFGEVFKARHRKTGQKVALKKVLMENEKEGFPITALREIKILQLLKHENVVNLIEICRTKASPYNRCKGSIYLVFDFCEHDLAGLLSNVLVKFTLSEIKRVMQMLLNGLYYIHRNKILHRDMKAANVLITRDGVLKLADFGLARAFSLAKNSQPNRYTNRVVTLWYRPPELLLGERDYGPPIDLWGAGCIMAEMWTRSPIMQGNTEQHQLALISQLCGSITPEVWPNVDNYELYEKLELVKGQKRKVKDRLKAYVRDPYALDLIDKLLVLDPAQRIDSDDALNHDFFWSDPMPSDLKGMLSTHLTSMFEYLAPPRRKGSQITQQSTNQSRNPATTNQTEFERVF
Nature of the experiment: biochemical. Format: biochemical. The conditions noted are these: for remaining activity at 10 µM: read-out: % Enzyme Activity (relative to DMSO controls).

Experiment [4] deals with T4, 382 unique human kinases (Homo sapiens, UniProt Q00534).
T4 construct: purchased Reaction Biology (HotSpot contract assay)
T4 sequence (Q00534 whole entry): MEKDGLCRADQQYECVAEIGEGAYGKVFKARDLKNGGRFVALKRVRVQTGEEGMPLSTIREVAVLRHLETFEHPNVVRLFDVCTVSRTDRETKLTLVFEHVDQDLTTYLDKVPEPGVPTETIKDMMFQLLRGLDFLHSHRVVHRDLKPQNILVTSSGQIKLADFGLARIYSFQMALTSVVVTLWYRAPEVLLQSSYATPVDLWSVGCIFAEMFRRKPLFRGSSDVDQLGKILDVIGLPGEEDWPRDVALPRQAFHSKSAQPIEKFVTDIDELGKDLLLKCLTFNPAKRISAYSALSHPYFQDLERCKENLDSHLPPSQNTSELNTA
Nature of the experiment: biochemical. Format: biochemical. The conditions noted are these: kinase CDK6/cyclin D1, compound 10 uM; for remaining activity at 10 µM: read-out: % Enzyme Activity (relative to DMSO controls).

Experiment [5] deals with T5, ABL2/ARG (Homo sapiens, UniProt P42684).
T5 construct: purchased Reaction Biology (HotSpot contract assay)
T5 sequence (P42684 whole entry): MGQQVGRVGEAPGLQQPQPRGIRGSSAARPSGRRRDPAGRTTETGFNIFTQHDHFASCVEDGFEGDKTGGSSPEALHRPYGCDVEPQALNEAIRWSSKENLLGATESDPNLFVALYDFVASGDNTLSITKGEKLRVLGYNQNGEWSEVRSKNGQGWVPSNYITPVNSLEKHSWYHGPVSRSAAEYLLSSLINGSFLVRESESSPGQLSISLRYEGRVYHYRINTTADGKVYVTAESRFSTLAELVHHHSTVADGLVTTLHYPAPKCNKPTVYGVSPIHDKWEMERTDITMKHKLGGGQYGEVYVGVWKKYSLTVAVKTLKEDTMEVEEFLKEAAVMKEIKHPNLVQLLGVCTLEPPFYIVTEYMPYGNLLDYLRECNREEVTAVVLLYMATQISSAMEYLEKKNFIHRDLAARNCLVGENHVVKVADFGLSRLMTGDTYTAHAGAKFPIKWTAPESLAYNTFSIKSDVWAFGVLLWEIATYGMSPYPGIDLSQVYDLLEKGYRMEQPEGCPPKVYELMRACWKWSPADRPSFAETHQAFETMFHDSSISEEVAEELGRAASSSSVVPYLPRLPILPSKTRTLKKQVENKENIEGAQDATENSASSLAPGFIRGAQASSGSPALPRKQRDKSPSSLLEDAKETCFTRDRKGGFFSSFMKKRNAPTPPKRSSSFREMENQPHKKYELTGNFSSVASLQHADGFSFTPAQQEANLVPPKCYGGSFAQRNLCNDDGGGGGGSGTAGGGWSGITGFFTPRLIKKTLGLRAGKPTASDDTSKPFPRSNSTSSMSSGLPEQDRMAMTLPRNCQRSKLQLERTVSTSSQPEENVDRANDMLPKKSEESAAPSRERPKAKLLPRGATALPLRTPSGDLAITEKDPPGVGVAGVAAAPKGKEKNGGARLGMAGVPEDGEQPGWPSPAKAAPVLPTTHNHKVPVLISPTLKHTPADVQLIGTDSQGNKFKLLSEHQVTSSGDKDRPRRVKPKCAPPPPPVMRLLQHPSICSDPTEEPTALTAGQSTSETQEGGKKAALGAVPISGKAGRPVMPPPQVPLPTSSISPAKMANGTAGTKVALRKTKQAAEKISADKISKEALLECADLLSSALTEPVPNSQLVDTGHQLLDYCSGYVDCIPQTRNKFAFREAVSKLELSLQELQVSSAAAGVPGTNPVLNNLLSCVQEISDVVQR
The experiment can be described thus: HotSpot in vitro kinase radiometric assay. Format: biochemical.

In experiment [6] the target is T6, LYN B (Homo sapiens, UniProt P07948).
T6 construct: purchased Reaction Biology (HotSpot contract assay)
T6 sequence (P07948 1-491 isoform P07948-2): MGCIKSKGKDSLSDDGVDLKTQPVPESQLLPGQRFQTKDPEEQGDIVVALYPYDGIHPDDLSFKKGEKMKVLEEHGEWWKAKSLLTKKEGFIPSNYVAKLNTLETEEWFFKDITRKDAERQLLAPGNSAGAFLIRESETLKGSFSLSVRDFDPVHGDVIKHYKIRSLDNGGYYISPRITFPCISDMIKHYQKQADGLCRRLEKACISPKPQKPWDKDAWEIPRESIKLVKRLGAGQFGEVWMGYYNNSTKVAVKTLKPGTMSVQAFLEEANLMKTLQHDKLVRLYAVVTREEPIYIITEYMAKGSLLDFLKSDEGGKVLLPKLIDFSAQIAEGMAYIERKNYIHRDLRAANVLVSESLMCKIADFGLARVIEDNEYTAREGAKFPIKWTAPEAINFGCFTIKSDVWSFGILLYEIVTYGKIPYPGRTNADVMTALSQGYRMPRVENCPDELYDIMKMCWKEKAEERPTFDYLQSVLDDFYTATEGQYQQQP
Nature of the experiment: HotSpot in vitro kinase radiometric assay. Type of experiment: biochemical. Particulars: 10 μM; Fig 6C median ± standard deviation (n = 2). The gist of the method:
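Compounds were incubated with kinase, substrate, cofactors and radiolabelled ATP (32P-ɣ-ATP or 33P-ɣ-ATP), then reaction mixtures were spotted onto filter paper that binds the labelled product. Catalytic inhibition was measured directly, without modified substrates, coupling enzymes or antibodies.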

The test system of experiment [7] is 382 unique human kinases. Nature of the experiment: biochemical. Type of experiment: biochemical.
For experiment [8], the system named is HSP90AB1. Details: method as in ChEMBL23 (accessed: 23/08/2018). Particulars: average of reported values; ref ChEMBL23 (accessed: 23/08/2018); cited from earlier work.
The subject of experiment [9] is TRAP1. Details: method as in ChEMBL23 (accessed: 23/08/2018). Particulars: average of reported values; ref ChEMBL23 (accessed: 23/08/2018); cited from earlier work.
Experiment [10] addresses ABL1 (Homo sapiens, UniProt P00519). The experiment can be described thus: HotSpot in vitro kinase radiometric assay. Type of experiment: biochemical. Set-up: purchased Reaction Biology (HotSpot contract assay).
Experiment [11] concerns the target DDR1 (Homo sapiens, UniProt Q08345). Nature of the experiment: HotSpot in vitro kinase radiometric assay. Details: purchased Reaction Biology (HotSpot contract assay). Format: biochemical.
Where [12] appears, read: kinase CDK2/cyclin O, compound 10 uM.
Where [13] appears, read: kinase CDK9/cyclin K, compound 10 uM.

ABL1, sequence (P00519 whole entry): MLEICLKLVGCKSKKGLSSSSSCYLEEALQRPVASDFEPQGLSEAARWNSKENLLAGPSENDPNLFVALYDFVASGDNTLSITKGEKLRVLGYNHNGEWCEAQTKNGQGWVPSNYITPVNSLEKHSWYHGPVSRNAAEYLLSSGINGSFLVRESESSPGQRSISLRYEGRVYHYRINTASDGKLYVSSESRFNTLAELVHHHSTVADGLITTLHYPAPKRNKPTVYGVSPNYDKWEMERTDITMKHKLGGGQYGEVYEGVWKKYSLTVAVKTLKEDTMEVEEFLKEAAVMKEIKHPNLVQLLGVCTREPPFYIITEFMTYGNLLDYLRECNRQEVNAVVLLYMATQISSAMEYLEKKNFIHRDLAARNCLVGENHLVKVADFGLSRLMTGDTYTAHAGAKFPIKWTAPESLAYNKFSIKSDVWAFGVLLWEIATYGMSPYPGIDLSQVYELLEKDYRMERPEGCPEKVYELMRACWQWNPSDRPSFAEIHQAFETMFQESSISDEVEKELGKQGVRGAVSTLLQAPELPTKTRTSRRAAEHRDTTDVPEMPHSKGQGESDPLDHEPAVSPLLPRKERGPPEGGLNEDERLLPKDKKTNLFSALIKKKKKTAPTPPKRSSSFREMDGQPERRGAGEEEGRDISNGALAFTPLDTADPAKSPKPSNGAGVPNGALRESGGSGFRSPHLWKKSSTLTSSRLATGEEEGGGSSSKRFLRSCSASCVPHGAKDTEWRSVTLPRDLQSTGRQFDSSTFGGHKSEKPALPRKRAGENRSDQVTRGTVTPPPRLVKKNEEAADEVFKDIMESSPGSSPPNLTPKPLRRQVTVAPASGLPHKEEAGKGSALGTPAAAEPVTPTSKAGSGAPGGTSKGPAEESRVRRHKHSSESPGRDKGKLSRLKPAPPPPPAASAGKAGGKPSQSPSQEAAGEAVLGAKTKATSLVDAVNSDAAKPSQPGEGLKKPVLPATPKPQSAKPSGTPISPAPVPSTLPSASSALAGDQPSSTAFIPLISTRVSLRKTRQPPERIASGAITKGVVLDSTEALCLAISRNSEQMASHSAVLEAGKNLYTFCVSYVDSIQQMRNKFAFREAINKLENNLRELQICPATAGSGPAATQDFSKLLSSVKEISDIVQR
DDR1, sequence (Q08345 19-913): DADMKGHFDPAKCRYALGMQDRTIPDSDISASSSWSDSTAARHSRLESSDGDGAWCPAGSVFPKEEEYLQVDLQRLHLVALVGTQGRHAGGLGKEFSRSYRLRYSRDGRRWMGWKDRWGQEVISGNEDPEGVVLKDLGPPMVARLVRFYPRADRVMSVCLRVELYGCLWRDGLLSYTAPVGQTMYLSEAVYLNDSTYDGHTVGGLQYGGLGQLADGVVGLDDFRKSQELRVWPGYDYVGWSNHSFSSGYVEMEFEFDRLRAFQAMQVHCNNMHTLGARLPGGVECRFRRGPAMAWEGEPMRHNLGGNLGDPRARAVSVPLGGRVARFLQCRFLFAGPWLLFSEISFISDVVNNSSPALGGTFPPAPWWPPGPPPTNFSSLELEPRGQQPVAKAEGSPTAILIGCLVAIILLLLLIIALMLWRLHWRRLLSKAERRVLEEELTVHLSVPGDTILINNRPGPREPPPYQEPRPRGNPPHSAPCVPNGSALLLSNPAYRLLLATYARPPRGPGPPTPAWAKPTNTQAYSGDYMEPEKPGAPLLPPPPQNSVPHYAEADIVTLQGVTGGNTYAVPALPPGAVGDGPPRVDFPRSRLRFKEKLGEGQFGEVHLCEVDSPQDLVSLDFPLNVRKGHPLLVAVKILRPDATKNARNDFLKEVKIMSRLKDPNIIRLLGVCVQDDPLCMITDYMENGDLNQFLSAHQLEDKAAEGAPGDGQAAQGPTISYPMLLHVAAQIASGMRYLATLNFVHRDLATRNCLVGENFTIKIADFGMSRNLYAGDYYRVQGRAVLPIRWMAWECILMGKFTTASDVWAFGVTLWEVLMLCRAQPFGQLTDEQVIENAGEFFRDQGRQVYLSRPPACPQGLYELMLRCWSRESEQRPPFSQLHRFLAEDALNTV
T1 sequence (P11802 whole entry): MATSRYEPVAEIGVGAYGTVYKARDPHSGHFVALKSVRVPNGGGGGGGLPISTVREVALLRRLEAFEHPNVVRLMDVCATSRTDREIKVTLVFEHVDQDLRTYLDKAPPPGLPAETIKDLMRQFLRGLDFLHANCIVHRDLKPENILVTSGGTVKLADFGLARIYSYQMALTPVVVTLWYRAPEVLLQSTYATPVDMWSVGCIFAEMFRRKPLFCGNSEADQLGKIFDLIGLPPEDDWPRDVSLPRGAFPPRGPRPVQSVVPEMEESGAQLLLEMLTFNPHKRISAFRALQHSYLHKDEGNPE

In the case of `CC(C)c1cc(-c2n[nH]c(=O)n2-c2ccc3c(ccn3C)c2)c(O)cc1O` [Ganetespib (STA9090)], the remaining activity at 10 µM in experiment [1] (CDK4/cyclin D1, 10 uM) came to 65.6%; in experiment [2] (CDK2/cyclin A, 10 uM) it was 74.3%; in [2] (setting [12]), 92.8%; in experiment [3] (CDK9/cyclin T2, 10 uM), 69.9%; in experiment [3] (setting [13]), 87%; in experiment [4] it was 85%.
On to `CC(C)c1cc(-c2n[nH]c(=O)n2-c2ccc3c(ccn3C)c2)c(O)cc1O` [Ganetespib], for which the HILLSLOPE is -0.77 and -0.90 and -0.92 in experiment [5] (ABL2, single replicate curves); -0.99 and -0.93 and -0.96 in [10] (ABL1, single replicate curves); -0.94 and -1.03 and -0.91 in experiment [11] (DDR1, single replicate curves). For the same molecule, the IC50 in experiment [5] (ABL2, single replicate curves, read-out: IC50) is 174 nM and 230 nM and 240 nM; in experiment [5] (radiometric 10-point concentration-response, n = 3, read-out: in vitro biochemical IC50, ABL2), 215 nM; in experiment [10] (ABL1, single replicate curves, read-out: IC50) it was 625 nM and 519 nM and 539 nM; in experiment [10] (radiometric 10-point concentration-response, n = 3, read-out: in vitro biochemical IC50, ABL1), 561 nM; in [11] (DDR1, single replicate curves, read-out: IC50) it was 361 nM and 363 nM and 289 nM; in [11] (radiometric 10-point concentration-response, n = 3, read-out: in vitro biochemical IC50, DDR1), 338 nM. Also, the inhibition at 1 µM in [5] (read-out: % inhibition of ABL2 at 1 μM, 1 μM, secondary screening) is > 85%; in [10] (read-out: % inhibition of ABL1 at 1 μM, 1 μM, secondary screening), > 80%; in experiment [11] (read-out: % inhibition of DDR1 at 1 μM, 1 μM, secondary screening), > 85%. Also, in experiment [6], the “% inhibition at 10 uM: LYN B” value is “not inhibited”. The remaining activity at 10 µM is 53.8% in [1] (CDK4/cyclin D3, [ATP] 5 µM, compound 10 uM); 108% in experiment [2] (CDK2/Cyclin A1, 10 uM); 93.7% in [2] (CDK2/cyclin E, 10 uM); 100% in [3] (CDK9/cyclin T1, 10 uM). Besides, the “number of kinases with inhibition of catalytic activity below 1 μM” value in experiment [7] amounted to 4. For the same molecule, the “number of native kinases inhibited by more than 85% at 10 μM” value in experiment [7] (10 μM) was determined as 20. The “In vitro screening: kinases hit / kinases screened” value in [7] (Figure 3) is recorded as 21/382. The “number of off-target kinases experimentally identified, In vitro binding (KinomeSCAN)” value in [7] (cutoff of >85% inhibition at 10 μM, luminespib and ganetespib large kinome panel, others 16-kinase panel) is reported as 21. The “pActivity, HSP90AB1” value in experiment [8] is 8.3. In experiment [9], the “pActivity, TRAP1” value is reported as 7.29.
As to `CCNC(=O)c1noc(-c2cc(C(C)C)c(O)cc2O)c1-c1ccc(CN2CCOCC2)cc1` [Luminespib (AUY-922)], the “% Enzyme Activity (relative to DMSO controls)” value came to 100.66% in experiment [1] (CDK4/cyclin D1, 10 uM); 97.81% in experiment [2] (CDK2/cyclin A, 10 uM); 100.70% in experiment [2] (setting [12]); 89.68% in experiment [3] (CDK9/cyclin T2, 10 uM); 104.02% in experiment [3] (setting [13]); 105.58% in experiment [4]. Further, the “% Enzyme Activity (relative to DMSO controls)” value is 85.87% and 84.56% in [7] (ALK (F1174L)-EML4, 10 uM); 102.87% and 100.42% in experiment [7] (ALK (F1174L)-NPM1, 10 uM); 100.77% and 99.39% in [7] (ALK-NPM1, 10 uM); 100.17% and 98.13% in [7] (ALK-TFG, 10 uM); 111.39% and 111.37% in [7] (BRAF (R506_K507insVLR), compound at 10 uM, duplicate values); 105.00% and 104.80% in experiment [7] (BRAF (d485-489/P490Y), compound at 10 uM, duplicate values). The “% Enzyme Activity (relative to DMSO controls)” value is 106.11% and 102.92% in [7] (BRAF-KIAA1549 (Kex15Bex9), compound at 10 uM, duplicate values); 104.70% and 104.59% in experiment [7] (BRAF-KIAA1549 (Kex16Bex9), compound at 10 uM, duplicate values); 107.79% and 106.99% in experiment [7] (BRAF-SRGAP3 (Sex12Bex9), compound at 10 uM, duplicate values); 63.63% and 61.80% in experiment [7] (PDGFRb-TPM3, 10 uM); 60.28% and 59.59% in experiment [7] (PKG1b, 10 uM); 105.26% and 102.15% in experiment [7] (RET-CCDC6 (PTC1), 10 uM). Further, the “% Enzyme Activity (relative to DMSO controls)” value in [7] (RET-NCOA4 (PTC3), 10 uM) was 95.03% and 94.64%; in experiment [7] (RET-PRKAR1A (PTC2), 10 uM), 95.60% and 94.13%; in [7] (ROS1-TPM3, 10 uM), 97.28% and 96.49%; in [7] (kinase EGFR (A763_Y764insFHEA), compound 10 uM), 98.66% and 97.53%; in experiment [7] (kinase EGFR (D770GY), compound 10 uM), 129.18% and 126.54%; in experiment [7] (kinase EGFR (D770_N771insNPG), compound 10 uM) it was 106.12% and 103.12%. Moreover, the “% Enzyme Activity (relative to DMSO controls)” value in experiment [7] (kinase EGFR (d746), compound 10 uM) was 98.75% and 97.31%; in experiment [7] (kinase EGFR (d746-750/T790M/C797S), compound 10 uM) it was 100.68% and 100.47%; in [7] (kinase EGFR (d747-752/P753S), compound 10 uM), 98.74% and 98.40%; in [7] (kinase ERBB2 (P780_Y781insGSP), compound 10 uM) it was 96.69% and 95.30%; in experiment [7] (kinase KSR1 (L639F), compound 10 uM) it was 103.34% and 102.74%; in experiment [7] (kinase PDGFRa-FIP1L1, compound 10 uM), 98.64% and 97.51%. For the same molecule, in experiment [7] (kinase RET-BCR, compound 10 uM), the “% Enzyme Activity (relative to DMSO controls)” value is 97.53% and 96.48%. Also, the remaining activity at 10 µM was 103% in [1] (CDK4/cyclin D1, 10 uM); 97.9% in experiment [2] (CDK2/cyclin A, 10 uM); 101% in experiment [2] (setting [12]); 89.7% in [3] (CDK9/cyclin T2, 10 uM); 104% in [3] (setting [13]); 106% in experiment [4].
